One assay has as its target PRMT5/MEP50 complex (Homo sapiens (Human), UniProt O14744). Description: PRMT5 biochemical assay (3H-SAM filter plate, histone H2A substrate). The following applies: PRMT5/MEP50 5 nM, histone H2A 5 μM, SAM 1 μM; read-out: PRMT5 IC50. The protocol:
Biochemical Assay Protocol
Compounds were solubilized and 3-fold diluted in 100% DMSO. […] Standard reactions were performed in a total volume of 50 μl in assay buffer, with histone H2A (5 μM final) as substrate. To this was added the PRMT5/MEP50 complex diluted to provide a final assay concentration of 5 nM and the compounds were allowed to preincubate for 15 to 20 minutes at room temperature. The reaction was initiated by adding S-[3H-methyl]-adenosyl-L-methionine (PerkinElmer) to final concentration of 1 μM. Following a 60 minutes incubation at 30° C., the reaction was stopped by adding 100 μL of 20% TCA. Each reaction was spotted onto filter plate (MultiScreen FB Filter Plate, Millipore), and washed 5 times with PBS buffer, Scintillation fluid was added to the filter plate and read in a scintillation counter. IC50 values were determined by fitting the data to the standard 4 parameters with Hill Slope using GraphPad Prism software.

The test system of the next assay is sDMA. Description: Western blot for symmetric di-methyl arginine (sDMA) IC50 in Granta cells. Type of assay: cell-based. The following applies: Homo sapiens, 72 h; Granta-519 cell line, 3 days. In general terms: A western blot detects proteins with antibodies after separation by electrophoresis.

For orientation: IC50 means the concentration needed to halve the response being measured.

Sequence of PRMT5/MEP50 complex (O14744 whole entry): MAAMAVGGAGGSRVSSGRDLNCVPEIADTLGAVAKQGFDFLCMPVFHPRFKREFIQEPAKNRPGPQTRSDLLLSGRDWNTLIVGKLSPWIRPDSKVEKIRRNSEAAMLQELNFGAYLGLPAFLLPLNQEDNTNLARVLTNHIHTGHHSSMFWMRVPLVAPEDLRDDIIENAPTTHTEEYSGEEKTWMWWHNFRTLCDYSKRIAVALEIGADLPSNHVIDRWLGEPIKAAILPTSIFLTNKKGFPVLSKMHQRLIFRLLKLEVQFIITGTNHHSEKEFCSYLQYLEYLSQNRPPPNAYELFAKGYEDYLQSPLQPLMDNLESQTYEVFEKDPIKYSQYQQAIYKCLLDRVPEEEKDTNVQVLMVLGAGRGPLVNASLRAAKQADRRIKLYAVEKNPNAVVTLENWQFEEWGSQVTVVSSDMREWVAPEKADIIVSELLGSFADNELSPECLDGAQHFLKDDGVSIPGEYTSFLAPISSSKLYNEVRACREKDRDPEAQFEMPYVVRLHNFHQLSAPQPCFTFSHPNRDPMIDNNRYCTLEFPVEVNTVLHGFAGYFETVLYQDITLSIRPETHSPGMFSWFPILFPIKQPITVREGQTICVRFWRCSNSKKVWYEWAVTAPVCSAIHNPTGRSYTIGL
Sequence of PRMT5/MEP50 complex (Q9BQA1 whole entry partner): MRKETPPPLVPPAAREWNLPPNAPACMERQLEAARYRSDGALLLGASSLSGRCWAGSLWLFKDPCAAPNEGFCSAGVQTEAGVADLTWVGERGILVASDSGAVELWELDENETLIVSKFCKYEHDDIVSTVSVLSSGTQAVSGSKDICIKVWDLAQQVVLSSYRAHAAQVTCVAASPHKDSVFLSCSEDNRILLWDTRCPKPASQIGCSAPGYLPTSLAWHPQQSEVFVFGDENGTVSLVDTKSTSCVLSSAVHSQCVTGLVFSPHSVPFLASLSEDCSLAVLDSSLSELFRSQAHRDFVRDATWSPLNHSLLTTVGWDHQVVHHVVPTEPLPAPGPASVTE

Take `Cc1ncnc2c1ccn2[C@@H]1O[C@H]([C@H](O)c2ccc(C(F)(F)F)cc2)[C@@](C)(O)[C@H]1O` [Example 62, (2R,3S,4R,5R)-2-((R)-hydroxy(4-(trifluoromethyl)phenyl)methyl)-3-methyl-5-(4-methyl-7H-pyrrolo[2,3-d]pyrimidin-7-yl)tetrahydrofuran-3,4-diol]: the IC50 at PRMT5/MEP50 complex was 7 nM; with sDMA it was 415 nM.

Take `C[C@@]1(O)[C@@H](Cc2ccc(Cl)c(Cl)c2)O[C@@H](n2ccc3c(N)ncnc32)[C@@H]1O` [Example 50, (2R,3S,4R,5R)-5-(4-amino-7H-pyrrolo[2,3-d]pyrimidin-7-yl)-2-(3,4-dichlorobenzyl)-3-methyltetrahydrofuran-3,4-diol]: the IC50 was 17 nM on PRMT5/MEP50 complex and 9000 nM in the assay on sDMA.

Regarding `Cc1ncnc2c1ccn2[C@@H]1O[C@H](COc2ccc3cc(Br)c(N)nc3c2)[C@@](C)(O)[C@H]1O` [Example 55, (2R,3S,4R,5R)-2-(((2-amino-3-bromoquinolin-7-yl)oxy)methyl)-3-methyl-5-(4-methyl-7H-pyrrolo[2,3-d]pyrimidin-7-yl)tetrahydrofuran-3,4-diol], the IC50 worked out at 0.8 nM at PRMT5/MEP50 complex and 5.1 nM with sDMA.

Take `Nc1ccc2ccc(OC[C@H]3O[C@@H](n4ccc5c(N)ncnc54)[C@H](O)[C@@]3(O)C(F)(F)F)cc2n1` [Example 2, (2R,3S,4R,5R)-5-(4-amino-7H-pyrrolo[2,3-d]pyrimidin-7-yl)-2-(((2-aminoquinolin-7-yl)oxy)methyl)-3-(trifluoromethyl)tetrahydrofuran-3,4-diol]: the figures for the IC50 at PRMT5/MEP50 complex and in the assay with sDMA were 1.9 nM and 21 nM, respectively.

As for `C[C@@]1(O)[C@@H](COc2cccc(CN)c2)O[C@@H](n2ccc3c(N)ncnc32)[C@@H]1O` [Example 22, (2R,3S,4R,5R)-5-(4-amino-7H-pyrrolo[2,3-d]pyrimidin-7-yl)-2-((3-(aminomethyl)phenoxy)methyl)-3-methyltetrahydrofuran-3,4-diol], the figures for the IC50 on PRMT5/MEP50 complex and with sDMA were 126 nM and 60000 nM, respectively.

As for `C[C@@]1(O)[C@@H](COc2ccc3cc(Br)c(N)nc3c2)O[C@@H](n2ccc3c(N)ncnc32)[C@@H]1O` [Example 12, (2R,3S,4R,5R)-2-(((2-amino-3-bromoquinolin-7-yl)oxy)methyl)-5-(4-amino-7H-pyrrolo[2,3-d]pyrimidin-7-yl)-3-methyltetrahydrofuran-3,4-diol], the IC50 is 0.5 nM on PRMT5/MEP50 complex and 1 nM in the assay with sDMA.

As for `Cc1ncnc2c1ccn2[C@@H]1O[C@H](COc2ccn3c(C)cnc3c2)[C@@](C)(O)[C@H]1O` [Example 67, (2R,3S,4R,5R)-3-methyl-5-(4-methyl-7H-pyrrolo[2,3-d]pyrimidin-7-yl)-2-(((3-methylimidazo[1,2-a]pyridin-7-yl)oxy)methyl)tetrahydrofuran-3,4-diol], the IC50 on PRMT5/MEP50 complex was determined as 1 nM; in the assay on sDMA, 46 nM.

For the origin of these results see US10570140B2, “Selective inhibitors of protein arginine methyltransferase 5 (PRMT5)” (Prelude Therapeutics, Incorporated, priority 2017, dated 2020).
